What was measured:
Th17 cells [1] = experiment: Flow cytometry and intracellular cytokine staining of T cells; type: cell-based, mouse
Protocol: WT, CD5L−/− and Rorγt−/− Th17 cells were differentiated with TGF-1+IL-6 for 96h. […] Three independent experiments were performed. […] (FIG. 18E) Naïve WT T cells were activated without polarizing cytokines (Th0) and infected with retrovirus expressing Rorγt in the presence of control-RV or CD5L-RV with or without FF-MAS (5 uM) as a source of Rorγt ligand. Each dot represents an independent infection. (FIG. 18F) WT or CD5L−/− naïve cells were differentiated with TGF-β1+IL-6. At 48h, cells were replated in fresh media with either control or FF-MAS (5 uM) as a source of Rorγt ligand. Cells were harvested for FACS analysis 72h later.
T cell differentiation culture. Naïve CD4+CD44−CD62L+CD25− T cells or Effector memory CD4+CD44+CD62L− were sorted using BD FACSAria sorter and activated with plate-bound anti-CD3 and anti-CD28 antibodies (both at 2 μg/ml) in the presence of cytokines at a concentration of 2.5×10^5 cells/ml. For Th17 differentiation: 2 ng/ml of rhTGFβ1, 2 ng/ml of rhTGFβ3, 25 ng/ml rmIL-6, 20 ng/ml rmIL-18 (all from Miltenyi Biotec) and 20 ng/ml rmIL-23 (R & D systems) were used at various combinations as specified in figures. For Th1 differentiation, 20 ng/ml rmIL-12 (R & D systems); for Th2 differentiation 20 ng/ml rmIL-4 (Miltenyi Biotec); for iTreg differentiation, 2.5 ng/ml of rhTGFβ1 were used (Miltenyi Biotec). For differentiation experiments, cells were harvested at 48 hours. For restimulation experiments, cells were differentiated for 48 hours and resuspended in fresh media with no additional cytokines for 48-72 hours. Cells were re-stimulated with PMA/ionomycin for four hours before analysis for cytokines by intracellular cytokine staining. For experiments with exogenous fatty acid, fatty acids were purchased and resuspended first with serum-free media containing BSA prior being added to culture.
Flow cytometry and intracellular cytokine staining. Sorted naïve T cells were stimulated with phorbol 12-myristate 13-acetate (PMA) (50 ng/ml, Sigma-aldrich), ionomycin (1 μg/ml, Sigma-aldrich) and a protein transport inhibitor containing monensin (Golgistop) (BD Biosciences) for 4 h before detection by staining with antibodies.

Rorγt = molecular target: T1, Rorγt (Mus musculus, UniProt P51450); experiment: Rorγt ChIP-qPCR in Th17 cells; type: cell-based; details: WT Th17 cells, TGF-β1+IL-6 96h; 10 μM fatty acid added at day 0
T1 construct: expressed in transfected cells; host or cells: EL4 cells stably transfected with Rorγt vector
T1 sequence (P51450 1-495 isoform P51450-2): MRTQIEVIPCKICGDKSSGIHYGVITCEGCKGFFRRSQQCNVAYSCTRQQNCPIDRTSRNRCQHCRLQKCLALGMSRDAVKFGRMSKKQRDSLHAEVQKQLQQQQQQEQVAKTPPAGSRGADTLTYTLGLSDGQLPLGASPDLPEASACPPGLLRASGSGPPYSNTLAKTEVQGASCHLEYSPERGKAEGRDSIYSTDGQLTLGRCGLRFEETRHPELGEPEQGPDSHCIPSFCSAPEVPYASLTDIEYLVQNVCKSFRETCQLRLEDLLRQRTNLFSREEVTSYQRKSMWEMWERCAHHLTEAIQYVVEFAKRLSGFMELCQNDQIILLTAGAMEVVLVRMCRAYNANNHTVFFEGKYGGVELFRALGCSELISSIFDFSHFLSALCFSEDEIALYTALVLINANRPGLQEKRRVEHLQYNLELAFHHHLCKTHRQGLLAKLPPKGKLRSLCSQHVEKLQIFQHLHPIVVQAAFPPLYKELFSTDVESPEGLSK
Protocol: (FIG. 18A, FIG. 18B) Rorγt ChIP-PCR analyses in WT and CD5L−/− Th17 cells. WT, CD5L−/− and Rorγt−/− Th17 cells were differentiated with TGF-1+IL-6 for 96h. Enrichment of Rorγt binding to genomic regions of Il17 (FIG. 18A) and Il10 (FIG. 18B) is measured using qPCR. […] Three independent experiments were performed.

Th17 cells [2] = experiment: qPCR of gene expression (cyp51, sc4mol, pathogenicity signature) in Th17 cells with exogenous fatty acid; type: cell-based, mouse
[3] = Th17 cells differentiated with TGF-β1+IL-6

CCCCC/C=C\C/C=C\C/C=C\C/C=C\CCCC(=O)O [PUFA, arachidonic acid]
percentage of IL-17+CD4+ T cells (Th17 cells [1]; CD5L−/− Th17 cells differentiated with TGF-β1+IL-6): reduced percentage of IL-17+CD4+ T cells | IL-17 and IL-23R expression (Th17 cells [1]; WT Th17 cells differentiated with TGF-β1+IL-6 and expanded using IL-23 with fatty acid): suppressed IL-17 and IL-23R expression | Rorγt binding at Il17 and Il23r loci (ChIP-PCR) (Rorγt): decreased such binding | Rorγt binding to the Il10 CNS-9 locus (ChIP-PCR) (Rorγt): increased Rorγt binding to the Il10 CNS-9 locus | expression of cyp51 and sc4mol mRNA (Th17 cells [2]; CD5L−/− Th17 cells (TGF-β1+IL-6), fatty acid 25 uM added at 48h, analyzed at 96h): abolished the increased expression of the enzymes | Il22 expression (qPCR) (Th17 cells [2]; [3]): increased | effector molecule expression of the pathogenicity signature (Il10, Il23r, Ccl5, Csf2, Lag3; qPCR) (Th17 cells [2]; [3]): reciprocally regulated
